Assays:
Jurkat cells [1] = assay: Electron microscopy of Jurkat cells; format: cell-based; details: LAC 6 μM; 24 h
Protocol: E and F: Morphology of Jurkat cell treated with LAC. Jurkat cells were cultured in the absence (E) or presence (F) of LAC (6 μM) for 24 h and were evaluated with EM. Arrows indicate condensed nuclei.
(§1) Electron microscopy was also employed to examine the mode of cell death induced by LAC. The resting T cells (cells cultured in medium, FIG. 3A), activated T cells (40 h after PHA activation, FIG. 3C), and Jurkat cells (FIG. 3E) were all healthy looking. […] The resting T cells treated with LAC (10 μM) for 24 h were still healthy (FIG. 3B).
(§2) T cells and Jurkat cells were examined by electron microscopy as described by Tsao and Duguid (Tsao et al., 1987, Exp. Cell Res. 168:365).

[2] = test system: chymotrypsin-like activity in the lysate of PBMC; assay: LAC-inhibitable chymotrypsin-like activity in PBMC lysates; format: biochemical, human; details: 10 μM LAC
Protocol: Human PBMC were cultured in the absence or presence of 2 μg/ml PHA or 10 nM RAPA for 16 h-70 h as indicated. The cells were then harvested, and the chymotrypsin-like activity of whole cells lysates was assayed in the absence or presence of 20 μM proteasome inhibitor LAC. The data are presented as arbitrary units of fluorescence intensity per 20 μg lysate protein. The experiments were repeated three times and a representative one is shown. Samples are in duplicate and the mean±SD is shown. (A) Total chymotrypsin-like activity in the lysate of PBMC. (B) Lactacystin-inhibitable chymotrypsin-like activity in the lysate of 70 h PBMC. […] LAC was always added to the lysates during the proteinase assay 15 min before the addition of the substrate. The solid bars represent the activity in the presence of LAC. The net proteasome activities are calculated as the total activity minus the remaining activity after the LAC addition.
PBMC were cultured with or without PHA (2 μg/ml) and RAPA (10 nM). After 16 h-70 h, the cells were harvested and sonicated in 300 μl PBS on ice for 40 sec. Twenty micrograms of protein per sample from the cleared lysates were supplemented to 100 μl with 0.1 M Tris buffer (pH 8.2). A proteasome-specific inhibitor lactacystin (Omura et al., 1991, supra; Fentenay et al., 1995, supra) was added at a final concentration of 10 nM in some samples as indicated. The samples were incubated on ice for 15 min, and fluorogenic chymotrypsin substrate sLLVY-MCA was then added at a final concentration of 10 nM. The 20S proteasome, which was prepared as previously described (Friguet et al, 1994, J. Biol. Chem. 269:21639), was used as a positive control in place of cell lysates. The samples were incubated at 37° C. for 15 min and the reaction was terminated by adding 4 μl 2.5 M HCl. The samples were then diluted to 2 ml with 0.1 M Tris pH8.2, and measured for their fluorescent intensity by a PTI fluorometer (Photo Technology International, South Brunswick, N.J.). The excitation wavelength was 380 nm, and the emission wavelength 440 mn.

Bik [3] = assay: Immunoblotting of Bik in mitochondrial fraction of Jurkat cells; format: cell-based; details: lactacystin 6 μM
Protocol: Jurkat cells were treated with lactacystin (6 μM) for 5 h (lanes 2 and 4 of panel […]) or 7 h (lane 3 of panel B), lane 1 in panels A and B is untreated control samples. The cells were separated into mitochondrial (mito in panel A and mitochondria in panel B) and cytosolic (cytosol in panel A) fractions, and the lysate of these two fractions analyzed by immunoblotting using goat anti-Bik, and rabbit anti-Bax, Bak and Bad Ab (all from Santa Cruz Biotech, Santa Cruz, Calif.) followed by enhanced chemiluminescence (ECL, kit from Amersham). […] Jurkat cells, wild type Namalwa cells and Bcl-xL transfected Namalwa cells were treated with medium (lanes 1), staurosporine (0.3 μM, lanes 2) and lactacystin (6 μM, lanes 3) for 6 H. The proteins from the mitochondrial fraction of these cells were analyzed by immunoblotting and the amount of Bik, Bcl-xL, Bax, and Bak evaluated. The same membranes were used sequentially and probed with different antibodies against these factors. A nonspecific band recognized by a monoclonal antibody against cytochrome […] (COX) was used as control for even sample loading in the lanes.

Cyclin E-associated CDK = assay: Immunoprecipitation kinase assay, Cyclin E-associated CDK; format: cell-based, human; details: PHA-activated T cells; LAC 10 μM added once at 0 h
Protocol: Tonsillar T cells were activated with PHA (2 μg/ml) for a period as indicated in each graph. LAC (10 μM) was added once at 0 h. The cells were harvested at 16 h, 24 h, or 40 h as indicated. An equal amount of lysate protein ([…]) was precipitated with rabbit anti-CDK4, anti-CDK2 or anti-Cyclin E antisera (2.5 μg Ab/sample). The immune complexes were assayed for their kinase activities using histone H1 as a substrate. (A) CDK4 kinase activity. (B) CDK2 kinase activity. (C) Cyclin E-associated CDK activity. The membrane in (C) was subsequently hybridized with anti-Cyclin E (1 μg/ml) followed by ^125I-protein A for the evaluation of the protein level of Cyclin E.
Since at the late G1 phase Cyclin E is the predominant partner of CDK2 (Sherr, 1993, Cell 73:1059), we next examined the Cyclin E-associated CDK activity.
Lymphocytes were lysed by a lysis buffer as used in the immunoblotting (Chen et al., 1996, supra), and cleared lysates were quantitated for their protein content. For immunoprecipitation, 50 μl of rabbit antisera against CDK2, CDK4 or Cyclin E were added to the lysates equivalent to 20 or 40 μg protein depending on the experiment. […] The proteins were then transferred to PVDF membranes and the signals were detected by autoradiography.

Tonsillar T cells = assay: Electron microscopy of T cells; format: cell-based, human; details: LAC 10 μM, 24 h
Protocol: A and B: Morphology of resting T cells treated with LAC. Tonsillar T cells were culture in the absence (A) or presence (B) of LAC ([…]) for 24 h, and the cells were examined by EM.
C and D: Morphology of activated T cells treated with LAC. Tonsillar T cells were first activated with PHA (2 μg/ml) for 40 h. The cells were then cultured in the absence (C) or presence (D) of LAC (10 μM) for additional 24h, and were examined with EM.
as §1, §2

Bik [4] = assay: Immunoblotting of Bik in wild type Namalwa cells; format: cell-based, human; details: 6 h; lactacystin 6 μM, staurosporine 0.3 μM
Protocol: Jurkat cells, wild type Namalwa cells and Bcl-xL transfected Namalwa cells were treated with medium (lanes 1), staurosporine (0.3 μM, lanes 2) and lactacystin (6 μM, lanes 3) for 6 H. The proteins from the mitochondrial fraction of these cells were analyzed by immunoblotting and the amount of Bik, Bcl-xL, Bax, and Bak evaluated. The same membranes were used sequentially and probed with different antibodies against these factors. A nonspecific band recognized by a monoclonal antibody against cytochrome […] (COX) was used as control for even sample loading in the lanes.

Jurkat cells [5] = assay: Proliferation of Jurkat cells; format: cell-based; details: data not shown
Namalwa = assay: Quantitative filter elution assay of DNA fragmentation in Namalwa cells; format: cell-based, human; details: lactacystin 0.75-10 μM; 24-96 h
Protocol: A human B cell line Namalwa was stably transfected with an anti-apoptotic Bcl-2 family member Bcl-xL, and its sensitivity to the proteasome inhibitor-induced apoptosis tested by the quantitative filter elution assay (Schmitt et al., 1998, Exp. Cell Res. 240:107), which detects DNA fragmentation during apoptosis. The wild type Namalwa and transfected Namalwa cells overexpressing Bcl-xL were pulsed with ^14C-thymidine for 24 h, and then treated with different concentrations of lactacystin (0.75 μM, 1.5 μM, 3 μM, 6 μM and 10 μM). The cells were harvested at different time intervals (24-96 h), and DNA fragmentation measured.

Cyclin E-associated kinase activity (Cyclin E-associated CDK): almost completely inhibited
SMILES: CC(=O)N[C@@H](CSC(=O)[C@]1([C@@H](O)C(C)C)NC(=O)[C@H](C)[C@@H]1O)C(=O)O [LAC, lactacystin]
nuclear condensation by electron microscopy (Jurkat cells [1]): frequently observed
inhibition of total chymotrypsin-like activity in the lysate ([2]; 70 h lysate from PHA plus RAPA-treated PBMC): 86.7%
inhibition of total chymotrypsin-like activity in the lysate ([2]; 70 h lysate from PHA-treated PBMC): 76.7%
inhibition of total chymotrypsin-like activity in the lysate ([2]; 70 h lysate from medium-treated PBMC): 73.4%
accumulation of Bik in Jurkat cells (Bik [3]; 6 h, staurosporine 0.3 μM): accumulates
amount of Bik (Bik [3]; 4 h, 5 h and 7 h): demonstable increase
nuclear condensation by electron microscopy (Tonsillar T cells; activated T cells (40 h after PHA)): frequently observed
morphology by electron microscopy (Tonsillar T cells; resting T cells): still healthy
accumulation of Bik in Namalwa cells (Bik [4]): accumulates
proliferation of Jurkat cells (Jurkat cells [5]): potently inhibited
DNA fragmentation in Bcl-xL transfected vs wild type Namalwa cells (Namalwa): demonstrably less DNA fragmentation

From US20020049157A1, “Use of proteasome inhibitors for treating cancer, inflammation, autoimmune disease, graft rejection and septic shock” (priority 1998, published 2002)
